From ChEMBL document CHEMBL1201862, “PubChem BioAssay data set” (2004)
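The compound was tested at five concentrations on cells cultured in 96-well plates, with a 48-hour exposure period. Here, GI50 denotes the concentration required for 50% inhibition of growth.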 Calls of active or inactive are those of the source. No stated cut-off is given here; in the data, active = GI50 up to about 1.1 µM and inactive = higher.

Assays:
Test in all cases: NCI tumour cell line growth inhibition, 48 h
NCI-H226 = test system: NCI-H226
SK-MEL-5 = test system: SK-MEL-5
OVCAR-8 = test system: OVCAR-8
PC-3 = test system: PC-3
HCT-116 = test system: HCT-116
SNB-75 = test system: SNB-75
UACC-257 = test system: UACC-257
T47D = test system: T47D
SK-MEL-2 = test system: SK-MEL-2
CAKI-1 = test system: CAKI-1
MDA-MB-231 = test system: MDA-MB-231
UO-31 = test system: UO-31
NCI-H23 = test system: NCI-H23
SF-295 = test system: SF-295
SNB-19 = test system: SNB-19
MDA-N = test system: MDA-N
HCC 2998 = test system: HCC 2998
A549 = test system: A549
K562 = test system: K562
SR = test system: SR

Measured: GI50

CC/C(Cl)=N\OC(=O)Nc1ccccc1OC(F)(F)F
inactive: NCI-H226 19.1 µM | SK-MEL-5 7.38 µM | OVCAR-8 17.7 µM | PC-3 18.1 µM | HCT-116 7.08 µM | SNB-75 19.7 µM | UACC-257 17.2 µM | T47D 4.32 µM | SK-MEL-2 17.7 µM | CAKI-1 1.89 µM | MDA-MB-231 17.1 µM | UO-31 8.18 µM | NCI-H23 20.9 µM | SF-295 17.2 µM | SNB-19 22.5 µM | MDA-N 8.47 µM | HCC 2998 18.6 µM | A549 22.6 µM | K562 1.95 µM

N#C/C(=N/Nc1[nH]cnc1C(N)=O)C(=O)Nc1ccccc1
inactive: NCI-H226 27 µM | SK-MEL-5 58.5 µM | OVCAR-8 3.23 µM | PC-3 7.89 µM | HCT-116 14.3 µM | SNB-75 24.5 µM | UACC-257 76.2 µM | T47D 56.6 µM | SK-MEL-2 5.27 µM | MDA-MB-231 32.3 µM | UO-31 3.43 µM | NCI-H23 56.8 µM | SF-295 17.5 µM | SNB-19 > 100 µM | MDA-N 12.9 µM | HCC 2998 9.89 µM | A549 > 100 µM | K562 1.52 µM

CC(C)CCNC(=O)C(CC(C)C)NC(=O)[C@H]1O[C@@H]1C(=O)O (stereo partly drawn)
inactive: NCI-H226 > 100 µM | SK-MEL-5 > 100 µM | OVCAR-8 > 100 µM | PC-3 > 100 µM | HCT-116 > 100 µM | SNB-75 > 100 µM | UACC-257 > 100 µM | T47D > 100 µM | CAKI-1 > 100 µM | MDA-MB-231 > 100 µM | UO-31 > 100 µM | NCI-H23 > 100 µM | SF-295 > 100 µM | SNB-19 > 100 µM | MDA-N > 100 µM | HCC 2998 > 100 µM | A549 > 100 µM | K562 > 100 µM

Cc1ccccc1NC(=O)Cc1csc2[n+]1C(=O)/C(=C/c1ccc([N+](=O)[O-])cc1)S2
inactive: NCI-H226 31.2 µM | SK-MEL-5 27.4 µM | OVCAR-8 24.8 µM | PC-3 26.8 µM | HCT-116 37.6 µM | SNB-75 19.3 µM | UACC-257 37.1 µM | T47D 29.2 µM | SK-MEL-2 29.4 µM | CAKI-1 25.5 µM | MDA-MB-231 37.5 µM | UO-31 18.4 µM | NCI-H23 23.9 µM | SF-295 31.8 µM | SNB-19 26.4 µM | MDA-N 37.2 µM | HCC 2998 28.1 µM | A549 32 µM

C#CCn1c(=O)c(C)cn(/C(=C\C(=O)OCC)C(=O)OCC)c1=O
inactive: NCI-H226 17.1 µM | SK-MEL-5 22.3 µM | OVCAR-8 3.05 µM | PC-3 13.5 µM | HCT-116 3.34 µM | SNB-75 17.6 µM | UACC-257 14.7 µM | T47D 2.65 µM | SK-MEL-2 16.2 µM | CAKI-1 1.36 µM | MDA-MB-231 10.1 µM | UO-31 12.7 µM | SR 2.96 µM | NCI-H23 12.6 µM | SF-295 19.5 µM | SNB-19 19.7 µM | MDA-N 7.5 µM | A549 20 µM | K562 2.63 µM

COC(=O)C1CCC(=S)N1C(=O)c1ccccc1 (stereo not drawn)
inactive: SK-MEL-5 > 100 µM | OVCAR-8 > 100 µM | PC-3 > 100 µM | HCT-116 > 100 µM | SNB-75 > 100 µM | UACC-257 > 100 µM | T47D > 100 µM | SK-MEL-2 > 100 µM | CAKI-1 > 100 µM | MDA-MB-231 > 100 µM | UO-31 > 100 µM | NCI-H23 > 100 µM | SF-295 > 100 µM | SNB-19 > 100 µM | MDA-N > 100 µM | HCC 2998 77.6 µM | A549 > 100 µM | K562 4.94 µM

CSCSSC
inactive: NCI-H226 > 100 µM | SK-MEL-5 > 100 µM | OVCAR-8 > 100 µM | PC-3 > 80 µM | HCT-116 > 100 µM | SNB-75 52.1 µM | UACC-257 > 100 µM | T47D > 100 µM | SK-MEL-2 > 35.5 µM | CAKI-1 > 21.6 µM | UO-31 > 100 µM | SR 30.7 µM | NCI-H23 > 83 µM | SF-295 > 100 µM | SNB-19 > 100 µM | MDA-N > 93.3 µM | HCC 2998 > 100 µM | A549 > 100 µM | K562 95.3 µM

Cc1ccc(-c2nc(-c3cnccn3)n(C3OC(CO)C(O)C(O)C3O)n2)cc1 (stereo not drawn)
inactive: SK-MEL-5 > 100 µM | OVCAR-8 > 100 µM | PC-3 > 100 µM | HCT-116 > 100 µM | SNB-75 > 100 µM | UACC-257 > 100 µM | T47D > 100 µM | MDA-MB-231 > 100 µM | UO-31 > 100 µM | SR > 100 µM | NCI-H23 > 100 µM | SF-295 > 100 µM | SNB-19 > 100 µM | MDA-N > 100 µM | HCC 2998 > 100 µM | A549 > 100 µM | K562 > 100 µM

CCCCc1c(O)nc(Nc2nc3ccccc3[nH]2)[nH]c1=O
inactive: NCI-H226 67 µM | SK-MEL-5 > 100 µM | OVCAR-8 > 100 µM | PC-3 > 100 µM | HCT-116 > 100 µM | SNB-75 > 100 µM | UACC-257 > 100 µM | T47D > 100 µM | SK-MEL-2 > 100 µM | CAKI-1 > 100 µM | MDA-MB-231 > 100 µM | SR > 100 µM | NCI-H23 > 100 µM | SF-295 > 100 µM | SNB-19 > 100 µM | MDA-N > 100 µM | A549 > 100 µM | K562 > 100 µM

Cc1ccccc1/N=N/c1cc(C)c(/N=N/c2c(O)ccc3ccccc23)cc1C
inactive: NCI-H226 > 100 µM | SK-MEL-5 > 100 µM | OVCAR-8 > 100 µM | PC-3 > 100 µM | HCT-116 > 100 µM | SNB-75 73.1 µM | UACC-257 > 100 µM | T47D > 100 µM | SK-MEL-2 > 100 µM | CAKI-1 > 100 µM | MDA-MB-231 > 100 µM | UO-31 > 100 µM | NCI-H23 > 100 µM | SF-295 > 100 µM | SNB-19 > 100 µM | MDA-N > 100 µM | A549 > 100 µM | K562 > 100 µM

O=C(O)c1ccc(OCc2ccccc2)c(Cl)c1
inactive: NCI-H226 > 100 µM | SK-MEL-5 > 100 µM | OVCAR-8 > 100 µM | PC-3 > 100 µM | HCT-116 > 100 µM | SNB-75 > 100 µM | UACC-257 > 100 µM | T47D > 100 µM | SK-MEL-2 > 100 µM | CAKI-1 20.2 µM | MDA-MB-231 > 100 µM | UO-31 > 100 µM | SR > 100 µM | NCI-H23 > 100 µM | SF-295 > 100 µM | SNB-19 > 100 µM | MDA-N > 100 µM | A549 > 100 µM | K562 > 100 µM

C=CCCC1CCCNC1=S (stereo not drawn)
inactive: NCI-H226 > 100 µM | SK-MEL-5 > 100 µM | OVCAR-8 > 100 µM | PC-3 > 100 µM | HCT-116 > 100 µM | SNB-75 > 100 µM | UACC-257 > 100 µM | T47D > 100 µM | SK-MEL-2 > 100 µM | CAKI-1 > 100 µM | MDA-MB-231 > 100 µM | UO-31 > 100 µM | NCI-H23 > 100 µM | SF-295 > 100 µM | SNB-19 > 100 µM | MDA-N > 100 µM | HCC 2998 > 100 µM | A549 > 100 µM | K562 > 100 µM

Cc1nc2c(c(N3CCN(C)CC3)n1)Cc1ccccc1-2
inactive: NCI-H226 45.8 µM | SK-MEL-5 51.2 µM | OVCAR-8 54 µM | PC-3 58.7 µM | HCT-116 46.5 µM | SNB-75 91.2 µM | UACC-257 57 µM | T47D > 100 µM | SK-MEL-2 75.5 µM | CAKI-1 17.1 µM | MDA-MB-231 37.8 µM | UO-31 15 µM | NCI-H23 57.8 µM | SF-295 42.4 µM | SNB-19 24.9 µM | MDA-N 58.5 µM | A549 44.2 µM | K562 34.6 µM

CC1(C)CC2(C)CC1CC2(O)c1ccccc1 (stereo not drawn)
inactive: NCI-H226 > 100 µM | SK-MEL-5 > 100 µM | OVCAR-8 > 100 µM | PC-3 > 100 µM | HCT-116 > 100 µM | SNB-75 > 100 µM | UACC-257 > 100 µM | T47D > 100 µM | CAKI-1 > 100 µM | MDA-MB-231 > 100 µM | UO-31 > 100 µM | SR > 100 µM | NCI-H23 > 100 µM | SF-295 > 100 µM | SNB-19 > 100 µM | MDA-N > 100 µM | A549 > 100 µM | K562 > 100 µM

CC(=O)NC1C(OCc2ccccc2)OC(CO)C(O)C1OCC(=O)N1CCCC1C(=O)N[C@@H](CCC(=O)NCCCCNc1c2ccccc2nc2cccc([N+](=O)[O-])c12)C(N)=O (stereo partly drawn)
inactive: NCI-H226 74 µM | OVCAR-8 31 µM | PC-3 18.7 µM | HCT-116 22.9 µM | SNB-75 21.4 µM | T47D 27.4 µM | SK-MEL-2 15.4 µM | CAKI-1 > 100 µM | UO-31 45.2 µM | SR 20.1 µM | NCI-H23 15.7 µM | SF-295 53.8 µM | SNB-19 17.7 µM | MDA-N 14.8 µM | HCC 2998 16.1 µM | A549 16 µM | K562 26.4 µM
